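96-well plates; 48 h exposure; 5 concentrations. Endpoints by linear interpolation between flanking doses. Not reached: highest tested concentration assigned. Abbreviation: GI50, concentration required for 50% inhibition of growth.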 Activity calls are given as the source filed them. No stated cut-off is given here; in the data, active = GI50 up to about 1.1 µM and inactive = higher.
Tests used:
Assay in all cases: NCI anticancer screen, dose series, 48 h
KM12 = system: KM12
COLO 205 = system: COLO 205
M14 = system: M14
SK-MEL-2 = system: SK-MEL-2
SF-295 = system: SF-295
NCI-H522 = system: NCI-H522
SN12C = system: SN12C
HT-29 = system: HT-29
Hs-578T = system: Hs-578T
UACC-62 = system: UACC-62
SR = system: SR
K562 = system: K562
NCI/ADR-RES = system: NCI/ADR-RES
BT-549 = system: BT-549
SF-539 = system: SF-539
NCI-H460 = system: NCI-H460
HCC 2998 = system: HCC 2998
SK-OV-3 = system: SK-OV-3
MOLT-4 = system: MOLT-4
MDA-N = system: MDA-N

Compound | GI50 (KM12) | GI50 (COLO 205) | GI50 (M14) | GI50 (SK-MEL-2) | GI50 (SF-295) | GI50 (NCI-H522) | GI50 (SN12C) | GI50 (HT-29) | GI50 (Hs-578T) | GI50 (UACC-62) | GI50 (SR) | GI50 (K562) | GI50 (NCI/ADR-RES) | GI50 (BT-549) | GI50 (SF-539) | GI50 (NCI-H460) | GI50 (HCC 2998) | GI50 (SK-OV-3) | GI50 (MOLT-4) | GI50 (MDA-N)
CN(C)CCn1c(CO)nc2c1c(=O)n(C)c(=O)n2C | > 100 µM (inactive) | > 100 µM (inactive) | > 100 µM (inactive) | > 100 µM (inactive) | > 100 µM (inactive) | > 100 µM (inactive) | > 100 µM (inactive) | > 100 µM (inactive) | > 100 µM (inactive) | > 100 µM (inactive) | > 100 µM (inactive) | > 100 µM (inactive) | > 100 µM (inactive) | > 100 µM (inactive) | > 100 µM (inactive) | > 100 µM (inactive) | > 100 µM (inactive) | > 100 µM (inactive) |  | 
CC[N+]1(C)CCC(O)(/C=C/c2ccc(Cl)c(Cl)c2)C(C(=O)/C=C/c2ccc(Cl)c(Cl)c2)C1 (configuration not stated) | 1.88 µM (inactive) | 2.65 µM (inactive) |  | 3.86 µM (inactive) | 4.14 µM (inactive) | 1.77 µM (inactive) | 1.88 µM (inactive) | 2.07 µM (inactive) | 2.91 µM (inactive) | 1.74 µM (inactive) | 0.406 µM (active) | 1.55 µM (inactive) | 2.51 µM (inactive) | 2.96 µM (inactive) | 3.03 µM (inactive) | 2.99 µM (inactive) | 1.95 µM (inactive) | 3.41 µM (inactive) | 2.28 µM (inactive) | 
O=C(NNC(=S)Nc1ccc(Br)cc1)c1cc(-c2ccccc2)nc2ccccc12 | 29.9 µM (inactive) | 22.6 µM (inactive) | 17 µM (inactive) | 20 µM (inactive) | 19.2 µM (inactive) | 22.2 µM (inactive) | 19.1 µM (inactive) | 32.1 µM (inactive) | 30.2 µM (inactive) | 20 µM (inactive) | 20.4 µM (inactive) | 25.2 µM (inactive) | 18.6 µM (inactive) | 24.5 µM (inactive) | 16.6 µM (inactive) | 20.8 µM (inactive) | 16.8 µM (inactive) | 25.2 µM (inactive) | 22.1 µM (inactive) | 
COc1ccc(C(=O)Sc2c(-c3ccccc3)c(=O)n(-c3ccccc3)c(=S)n2-c2ccccc2)cc1 | > 100 µM (inactive) | 39.7 µM (inactive) | 68.7 µM (inactive) |  | > 100 µM (inactive) | > 100 µM (inactive) | 41.7 µM (inactive) | > 100 µM (inactive) | > 100 µM (inactive) | > 100 µM (inactive) | 25.4 µM (inactive) | 37.1 µM (inactive) | > 100 µM (inactive) |  | 14.2 µM (inactive) | > 100 µM (inactive) | > 100 µM (inactive) | > 100 µM (inactive) | 21.6 µM (inactive) | > 100 µM (inactive)
O=S1(=O)OCCOS(=O)(=O)C1(F)Cc1ccccc1 |  | > 100 µM (inactive) | > 100 µM (inactive) | > 100 µM (inactive) | > 100 µM (inactive) | > 100 µM (inactive) | > 100 µM (inactive) | > 100 µM (inactive) | > 100 µM (inactive) | > 100 µM (inactive) | > 100 µM (inactive) | > 100 µM (inactive) | > 100 µM (inactive) |  | > 100 µM (inactive) | > 100 µM (inactive) | > 100 µM (inactive) | > 100 µM (inactive) | > 100 µM (inactive) | > 100 µM (inactive)
O=C1CSC2=NC3=C(CSC/C3=C\c3ccc(Cl)cc3)C(c3ccc(Cl)cc3)N12 (configuration not stated) | 8.04 µM (inactive) | 33.1 µM (inactive) | 19.1 µM (inactive) | 25.3 µM (inactive) | 12.1 µM (inactive) | 12.5 µM (inactive) | 12.4 µM (inactive) | 20.2 µM (inactive) |  | 24.9 µM (inactive) | 14.9 µM (inactive) | 21.1 µM (inactive) | 24.4 µM (inactive) |  |  | 28.5 µM (inactive) | 25.6 µM (inactive) | 52.7 µM (inactive) | 9.08 µM (inactive) | > 10 µM (inactive)
C=CC[C@H]1[C@@H](O[Si](C)(C)C(C)(C)C)[C@H](n2ccc(=O)[nH]c2=O)O[C@@H]1CO[Si](C)(C)C(C)(C)C | 1.65 µM (inactive) | 1.79 µM (inactive) | 1.57 µM (inactive) | 2.62 µM (inactive) | 1.98 µM (inactive) | 1.76 µM (inactive) | 1.52 µM (inactive) | 1.59 µM (inactive) | 3.01 µM (inactive) | 1.74 µM (inactive) | 2.44 µM (inactive) | 2.2 µM (inactive) | 2.15 µM (inactive) | 3.05 µM (inactive) | 4.19 µM (inactive) | 1.9 µM (inactive) | 1.93 µM (inactive) | 1.36 µM (inactive) | 1.99 µM (inactive) | 

— ChEMBL document CHEMBL1201862, “PubChem BioAssay data set” (2004)
